From US20220378901A1, “APPLICATION OF PSEUDOMONAS AERUGINOSA VACCINE IN RESPIRATORY DISEASE” (Sichuan University, priority 2019, published 2022) come the findings set out here.

In assay [1] the test system is SKLBPA1. The assay is described as follows: Immunoprotection against SKLBPA1 pulmonary infection. In kind it is in vivo, Pseudomonas aeruginosa. An excerpt: . […] One week after the last immunization, SKLBPA1 (which is the homologous strain of vaccine bacteria) and clinical carbapenem-resistant Pseudomonas aeruginosa (CRPA) C58 (from sputum, the drug sensitivity information of clinical C58 is shown in Table 7, which is different from the serotype of vaccine bacteria) are used for challenge.

In assay [2] the test system is SKLBPA1. Briefly: Efficacy against infection of vaccine alone or in combination with antibiotics. The following applies: 24 h after infection; no immunization; ATM 4 times (2 h, 4 h, 6 h, 8 h, 100 mg/kg/time); Model 24 h 6.86 ± 0.45.
Experimental: The mice in the immunization group are subcutaneously immunized with SKLB-V1 in the groin at 1×10^7 CFU/100 μL, with 3 injections. […] 24 h after the last immunization, the bacteria SKLBPA1 are used for challenge.

`C[C@H]1[C@H](NC(=O)/C(=N\OC(C)(C)C(=O)O)c2csc(N)n2)C(=O)N1S(=O)(=O)O` [Aztreonam, aztreonam]: the “Bacterial Load log10CFU” value in the assay on SKLBPA1 [1] (in vivo) is 4.31 ± 1.27 log10CFU; in the assay with SKLBPA1 [1] (mice lung tissue, 4 h after infection, SKLB-V1 1×10^7 CFU s.c. at 0, 1st, 2nd weeks, aztreonam 100 mg/kg i.p. from 2 h, model 4.50 ± 1.05), 4.68 ± 0.22 log10CFU. Moreover, the “Lung LOG10CFU” value in the assay on SKLBPA1 [2] is given as 4.11 ± 0.44 LOG10CFU.
